Literature values in patent publication US20070060740A1, “Protein crystal” (priority 2002, published 2007).

Tested on: LXR
Conditions: non-steroidal synthetic LXR ligands, background statement; read-out: binding IC50

SMILES: O=C(O)Cc1cccc(OCCCN(Cc2cccc(C(F)(F)F)c2Cl)CC(c2ccccc2)c2ccccc2)c1 [GW3965, 3-(3-(2-chloro-3-trifluoromethylbenzyl-2,2-diphenylethylamino)propoxy)phenylacetic acid]
- IC50: ~10 nM
